Measured values from ChEMBL document CHEMBL4825686, “HTS-based discovery and optimization of novel positive allosteric modulators of the α7 nicotinic acetylcholine receptor” (Eur J Med Chem, 2021).
The source made the active and inactive calls. No cut-off for these calls is given here.

Legend:
[1] = Mutagenicity in Salmonella typhimurium TA98 in presence of rat liver S9 fraction by AMES test; type: toxicity, subcellular; conditions: salmonella enterica subsp. enterica serovar typhimurium
[2] = Mutagenicity in Salmonella typhimurium TA98 in absence of rat liver S9 fraction by AMES test; type: toxicity; conditions: salmonella enterica subsp. enterica serovar typhimurium
[3] = target: 5-hydroxytryptamine receptor 2B (Homo sapiens) (UniProt P41595); assay: Binding affinity to human recombinant 5-HT2B receptor assessed as displacement of radioligand at 10 uM by displacement binding assay
[4] = Mutagenicity in Salmonella typhimurium TA1535 in presence of rat liver S9 fraction by AMES test; type: toxicity, subcellular; conditions: salmonella enterica subsp. enterica serovar typhimurium
Mus musculus [5] = assay: Cognitive enhancing effect in scopolamine-induced amnesia NMRI mouse model assessed as increase in recognition index at 1 to 10 mg/kg, ip administered 30 mins prior to scopolamine injection by Y-maze test; type: functional, organism-based; conditions: dose 1-10 mg/kg
[6] = Ratio of drug level in NMRI mouse brain to plasma at 10 mg/kg, ip measured after 1 hr by HPLC-MS/MS analysis; type: ADME, organism-based; conditions: read-out: BPR
[7] = Mutagenicity in Salmonella typhimurium TA1537 in presence of rat liver S9 fraction by AMES test; type: toxicity, subcellular; conditions: salmonella enterica subsp. enterica serovar typhimurium
Rattus norvegicus [8] = assay: Cognitive enhancing effect in po dosed Hannover Wistar rat assessed as increase in novel object recognition index administered 30 mins prior to recognition trail by novel object recognition test; type: functional; conditions: 0.5 h, read-out: MED
[9] = Drug uptake in Wistar rat brain at 10 mg/kg, ip measured after 35 mins by HPLC-MS/MS analysis; type: ADME, organism-based; conditions: read-out: Ct
[10] = Ratio of drug level in NMRI mouse brain to plasma at 3 mg/kg, ip measured after 1 hr by HPLC-MS/MS analysis; type: ADME, organism-based; conditions: read-out: BPR
[11] = Drug uptake in Wistar rat brain at 1 mg/kg, ip measured after 35 mins by HPLC-MS/MS analysis; type: ADME, organism-based; conditions: read-out: Ct
[12] = target: Sodium-dependent dopamine transporter (Homo sapiens) (UniProt Q01959); assay: Displacement of [125I]RTI55 from human recombinant DAT expressed in CHO-S cells at 10 uM incubated for 3 hrs by radiometric scintillation counting analysis; type: cell-based
[13] = Plasma concentration in Wistar rat at 1 mg/kg, ip measured after 35 mins by HPLC-MS/MS analysis; type: ADME, organism-based
[14] = Mutagenicity in Salmonella typhimurium TA1537 in absence of rat liver S9 fraction by AMES test; type: toxicity; conditions: salmonella enterica subsp. enterica serovar typhimurium
[15] = Plasma concentration in NMRI mouse at 1 mg/kg, ip measured after 1 hr by HPLC-MS/MS analysis; type: ADME, organism-based
[16] = target: Sodium-dependent noradrenaline transporter (Homo sapiens) (UniProt P23975); assay: Displacement of [125I]RTI55 from human recombinant NET expressed in MDCK cells at 10 uM incubated for 3 hrs by radiometric scintillation counting analysis; type: cell-based
[17] = Drug uptake in NMRI mouse brain at 3 mg/kg, ip measured after 1 hr by HPLC-MS/MS analysis; type: ADME, organism-based; conditions: read-out: Ct
Rattus norvegicus [18] = assay: Cognitive enhancing effect in Hannover Wistar rat assessed as increase in novel object recognition index at 1 to 10 mg/kg, po administered 30 mins prior to recognition trail by novel object recognition test; type: functional, organism-based; conditions: dose 1-10 mg/kg
[19] = Plasma concentration in NMRI mouse at 10 mg/kg, ip measured after 1 hr by HPLC-MS/MS analysis; type: ADME, organism-based
[20] = Mutagenicity in Salmonella typhimurium TA1535 in absence of rat liver S9 fraction by AMES test; type: toxicity; conditions: salmonella enterica subsp. enterica serovar typhimurium
[21] = Plasma concentration in Wistar rat at 10 mg/kg, ip measured after 35 mins by HPLC-MS/MS analysis; type: ADME, organism-based
[22] = Drug uptake in NMRI mouse brain at 10 mg/kg, ip measured after 1 hr by HPLC-MS/MS analysis; type: ADME, organism-based; conditions: read-out: Ct
[23] = Ratio of drug level in NMRI mouse brain to plasma at 1 mg/kg, ip measured after 1 hr by HPLC-MS/MS analysis; type: ADME, organism-based; conditions: read-out: BPR
[24] = Mutagenicity in Escherichia coli WP2 uvrA in absence of rat liver S9 fraction by AMES test; type: toxicity
[25] = Plasma concentration in NMRI mouse at 3 mg/kg, ip measured after 1 hr by HPLC-MS/MS analysis; type: ADME, organism-based
Rattus norvegicus [26] = assay: Reversal of scopolamine induced amnesia in Lister Hooded rat at 0.3 to 10 mg/kg, po administered 25 mins prior to scopolamine injection and measured after 20 mins by rodent touch screen visual discrimination test; type: functional, organism-based; conditions: dose 0.3-10 mg/kg
[27] = Drug uptake in Wistar rat brain at 3 mg/kg, ip measured after 35 mins by HPLC-MS/MS analysis; type: ADME, organism-based; conditions: read-out: Ct
[28] = Plasma concentration in Wistar rat at 3 mg/kg, ip measured after 35 mins by HPLC-MS/MS analysis; type: ADME, organism-based
Mus musculus [29] = assay: Cognitive enhancing effect in ip dosed scopolamine-induced amnesia NMRI mouse model assessed as increase in recognition index administered 30 mins prior to scopolamine injection by Y-maze test; type: functional; conditions: 0.5 h, read-out: MED
[30] = Ratio of drug level in Wistar rat brain to plasma at 3 mg/kg, ip measured after 35 mins by HPLC-MS/MS analysis; type: ADME, organism-based; conditions: read-out: BPR
[31] = Ratio of drug level in Wistar rat brain to plasma at 1 mg/kg, ip measured after 35 mins by HPLC-MS/MS analysis; type: ADME, organism-based; conditions: read-out: BPR
[32] = Mutagenicity in Salmonella typhimurium TA100 in presence of rat liver S9 fraction by AMES test; type: toxicity, subcellular; conditions: salmonella enterica subsp. enterica serovar typhimurium
[33] = Drug uptake in NMRI mouse brain at 1 mg/kg, ip measured after 1 hr by HPLC-MS/MS analysis; type: ADME, organism-based; conditions: read-out: Ct
[34] = Mutagenicity in Salmonella typhimurium TA100 in absence of rat liver S9 fraction by AMES test; type: toxicity; conditions: salmonella enterica subsp. enterica serovar typhimurium
[35] = Mutagenicity in Escherichia coli WP2 uvrA in presence of rat liver S9 fraction by AMES test; type: toxicity, subcellular
[36] = Apparent permeability across apical to basolateral side in vinblastine-treated human Caco-2 cells expressing P-glycoprotein at 1 uM incubated for 120 mins by HPLC analysis; type: ADME
[37] = Ratio of drug level in Wistar rat brain to plasma at 10 mg/kg, ip measured after 35 mins by HPLC-MS/MS analysis; type: ADME, organism-based; conditions: read-out: BPR

Sodium-dependent noradrenaline transporter (Homo sapiens), sequence (P23975 whole entry): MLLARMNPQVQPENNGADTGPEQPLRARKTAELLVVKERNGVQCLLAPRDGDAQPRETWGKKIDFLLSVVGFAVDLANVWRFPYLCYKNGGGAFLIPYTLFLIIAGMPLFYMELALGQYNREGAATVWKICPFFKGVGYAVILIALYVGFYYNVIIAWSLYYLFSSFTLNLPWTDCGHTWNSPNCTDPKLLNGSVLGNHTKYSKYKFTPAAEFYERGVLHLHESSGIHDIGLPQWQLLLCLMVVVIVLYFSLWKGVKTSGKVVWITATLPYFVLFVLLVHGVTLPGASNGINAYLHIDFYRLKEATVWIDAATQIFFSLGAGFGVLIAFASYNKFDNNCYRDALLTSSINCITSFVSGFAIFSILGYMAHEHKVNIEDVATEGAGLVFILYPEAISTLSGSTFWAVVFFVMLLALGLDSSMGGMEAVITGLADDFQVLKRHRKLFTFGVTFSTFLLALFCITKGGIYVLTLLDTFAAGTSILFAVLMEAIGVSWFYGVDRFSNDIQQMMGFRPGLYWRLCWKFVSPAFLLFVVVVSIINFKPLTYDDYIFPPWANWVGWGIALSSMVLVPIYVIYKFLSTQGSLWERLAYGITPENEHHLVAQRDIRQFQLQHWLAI
Sodium-dependent dopamine transporter (Homo sapiens), sequence (Q01959 whole entry): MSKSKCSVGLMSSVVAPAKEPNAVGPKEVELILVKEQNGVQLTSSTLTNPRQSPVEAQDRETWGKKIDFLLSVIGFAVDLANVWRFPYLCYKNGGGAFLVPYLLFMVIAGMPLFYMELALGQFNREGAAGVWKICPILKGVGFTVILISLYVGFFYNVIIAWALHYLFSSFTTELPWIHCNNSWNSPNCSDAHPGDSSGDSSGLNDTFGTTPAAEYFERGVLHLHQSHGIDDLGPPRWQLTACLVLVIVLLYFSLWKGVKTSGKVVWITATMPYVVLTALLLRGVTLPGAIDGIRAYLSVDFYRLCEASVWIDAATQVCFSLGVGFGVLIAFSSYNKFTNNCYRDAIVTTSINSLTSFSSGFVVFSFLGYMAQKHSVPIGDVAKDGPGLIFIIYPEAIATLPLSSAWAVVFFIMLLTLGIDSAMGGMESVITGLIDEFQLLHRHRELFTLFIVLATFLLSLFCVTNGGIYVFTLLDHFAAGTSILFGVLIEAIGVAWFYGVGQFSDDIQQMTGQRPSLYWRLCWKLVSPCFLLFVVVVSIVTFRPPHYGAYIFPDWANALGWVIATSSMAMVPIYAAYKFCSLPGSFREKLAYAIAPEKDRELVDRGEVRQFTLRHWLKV
5-hydroxytryptamine receptor 2B (Homo sapiens), sequence (P41595 whole entry): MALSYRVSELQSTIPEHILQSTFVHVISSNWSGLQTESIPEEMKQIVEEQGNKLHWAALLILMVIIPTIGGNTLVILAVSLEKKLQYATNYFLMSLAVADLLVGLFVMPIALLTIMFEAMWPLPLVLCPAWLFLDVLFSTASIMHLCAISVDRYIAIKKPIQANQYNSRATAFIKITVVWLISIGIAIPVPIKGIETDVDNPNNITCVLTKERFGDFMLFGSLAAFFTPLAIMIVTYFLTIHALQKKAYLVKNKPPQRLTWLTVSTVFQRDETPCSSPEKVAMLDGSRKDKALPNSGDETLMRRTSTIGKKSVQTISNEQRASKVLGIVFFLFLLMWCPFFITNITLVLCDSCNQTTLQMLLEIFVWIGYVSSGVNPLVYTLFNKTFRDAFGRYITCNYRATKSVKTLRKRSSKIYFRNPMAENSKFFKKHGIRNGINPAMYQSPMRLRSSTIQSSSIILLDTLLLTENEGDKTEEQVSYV

In the case of `O=C(NCc1ccc2[nH]ccc2c1)N1CC(COc2ccc(C(F)(F)F)cc2)C1`, the Activity [1] is reported as “Non-Toxic”, the Activity [2] is reported as “Non-Toxic” and the inhibition [3] is reported as greater than 50%. For the same compound, the Activity [4] was “Non-Toxic”, the Activity (Mus musculus [5]) was “Active” and the Kp at 1 h [6] was 1.06. The Activity [7] was “Non-Toxic”, the minimal effective dose (Rattus norvegicus [8]) was 1 mg/kg and the concentration at 35 min [9] was 11100 nM. It also gave a Kp at 1 h [10] of 0.99, a concentration at 35 min [11] of 1010 nM and an inhibition [12] greater than 50%. For the same compound, the concentration at 35 min [13] was 746 nM, the Activity [14] was “Non-Toxic” and the concentration at 1 h [15] was 647 nM. The inhibition [16] was greater than 50%, the concentration at 1 h [17] was 2210 nM and the Activity (Rattus norvegicus [18]) was “Active”. The concentration at 1 h [19] was 9470 nM, the Activity [20] was “Non-Toxic” and the concentration at 35 min [21] was 8020 nM. The concentration at 1 h [22] was 9920 nM, the Kp at 1 h [23] was 1.04 and the Activity [24] was “Non-Toxic”. For the same compound, the concentration at 1 h [25] was 2270 nM, the Activity (Rattus norvegicus [26]) was “Active” and the concentration at 35 min [27] was 3110 nM. It also gave a concentration at 35 min [28] of 2220 nM, a minimal effective dose (Mus musculus [29]) of 1 mg/kg and a Kp at 35 min [30] of 1.4. The Kp at 35 min [31] was 1.43, the Activity [32] was “Non-Toxic” and the concentration at 1 h [33] was 673 nM. For the same compound, the Activity [34] was “Non-Toxic”, the Activity [35] was “Non-Toxic” and the Papp A→B at 2 h, 1 µM [36] was 55 ×10⁻⁶ cm/s. The Kp at 35 min [37] was 1.38.
